# Experimental data from patent US20250059198A1, “BRM DEGRADING COMPOUNDS AND ASSOCIATED METHODS OF USE” (Arvinas Operations, Inc., priority 2021, published 2025).
# Target: T1, BRM (Homo sapiens, UniProt P51531)
# T1 construct: Western Blot Screen of BRM Degradation in SW1573 Cells; endogenous in cells; host or cells: SW1573 cells
# Assay: BRM degradation (Dmax and DC50) in SW1573 cells, Western blot screen / In-Cell Western screen
# Type: cell-based
# Details: overnight (18-20 hours) treatment; for Dmax: read-out: Dmax (%)** (% degraded)
# Procedure, shortened: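 Dmax and DC50 were derived from BRM levels normalised to an alpha-tubulin control, measured by chemiluminescent Western blotting of lysates or by PFA-fixed In-Cell Western on LI-COR Odyssey. SW1573 cells received compound overnight (18–20 h, 0.1% DMSO final).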
# T1 sequence (P51531 whole entry): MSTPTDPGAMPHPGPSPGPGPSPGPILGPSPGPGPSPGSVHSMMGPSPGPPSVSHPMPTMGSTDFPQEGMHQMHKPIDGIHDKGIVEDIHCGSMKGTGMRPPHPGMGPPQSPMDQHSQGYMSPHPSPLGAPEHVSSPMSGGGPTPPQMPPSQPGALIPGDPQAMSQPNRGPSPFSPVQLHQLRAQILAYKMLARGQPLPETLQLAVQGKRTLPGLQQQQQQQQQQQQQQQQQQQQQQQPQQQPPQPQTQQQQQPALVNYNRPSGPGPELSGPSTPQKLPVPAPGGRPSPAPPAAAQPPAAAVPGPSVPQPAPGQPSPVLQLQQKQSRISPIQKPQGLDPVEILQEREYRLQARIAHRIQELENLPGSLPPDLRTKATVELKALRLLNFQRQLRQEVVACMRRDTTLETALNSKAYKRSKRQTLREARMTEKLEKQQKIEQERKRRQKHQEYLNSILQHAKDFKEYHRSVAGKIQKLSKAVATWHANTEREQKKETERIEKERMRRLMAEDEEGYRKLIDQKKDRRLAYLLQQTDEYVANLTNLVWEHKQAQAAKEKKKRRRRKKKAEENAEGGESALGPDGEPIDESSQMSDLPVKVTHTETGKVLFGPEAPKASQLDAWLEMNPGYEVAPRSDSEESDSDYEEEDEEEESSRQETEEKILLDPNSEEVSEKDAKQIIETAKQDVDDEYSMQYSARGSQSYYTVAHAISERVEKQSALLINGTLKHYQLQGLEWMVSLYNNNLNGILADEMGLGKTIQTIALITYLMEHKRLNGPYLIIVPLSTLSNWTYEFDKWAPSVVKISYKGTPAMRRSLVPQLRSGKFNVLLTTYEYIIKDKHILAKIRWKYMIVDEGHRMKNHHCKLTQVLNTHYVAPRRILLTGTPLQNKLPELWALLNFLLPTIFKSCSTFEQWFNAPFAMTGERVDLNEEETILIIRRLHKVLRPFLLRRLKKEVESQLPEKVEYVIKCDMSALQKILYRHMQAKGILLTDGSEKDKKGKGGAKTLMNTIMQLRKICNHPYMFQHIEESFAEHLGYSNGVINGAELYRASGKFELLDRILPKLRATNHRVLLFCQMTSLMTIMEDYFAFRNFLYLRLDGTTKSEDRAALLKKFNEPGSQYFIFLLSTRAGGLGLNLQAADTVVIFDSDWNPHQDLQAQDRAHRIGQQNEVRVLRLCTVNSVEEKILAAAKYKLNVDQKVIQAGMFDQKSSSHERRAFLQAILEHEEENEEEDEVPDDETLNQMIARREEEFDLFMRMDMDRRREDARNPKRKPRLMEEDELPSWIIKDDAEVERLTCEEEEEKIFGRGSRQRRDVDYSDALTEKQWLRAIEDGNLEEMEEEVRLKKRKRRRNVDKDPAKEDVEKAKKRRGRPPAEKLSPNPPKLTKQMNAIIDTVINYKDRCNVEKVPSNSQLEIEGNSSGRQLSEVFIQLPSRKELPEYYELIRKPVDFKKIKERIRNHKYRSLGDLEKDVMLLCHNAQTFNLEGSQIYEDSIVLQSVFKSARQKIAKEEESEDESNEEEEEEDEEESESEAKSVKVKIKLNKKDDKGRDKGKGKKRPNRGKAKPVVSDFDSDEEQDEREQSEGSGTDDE
SMILES,DC50 [nM],Dmax [%]
"CC(C)[C@@H](C(=O)N1C[C@H](O)C[C@H]1C(=O)N[C@@H](C)c1ccc(C#N)cc1)c1cc(OCCN2CCN(CCOc3cc(N4C5CCC4CN(c4cc(-c6ccccc6O)nnc4N)C5)ccn3)CC2)no1 [Compound 66, (2S,4R)-1-[(2R)-2-{3-[2-(4-{2-[(4-{3-[3-amino-6-(2-hydroxyphenyl)pyridazin-4-yl]-3,8-diazabicyclo[3.2.1]octan-8-yl}pyridin-2-yl)oxy]ethyl}piperazin-1-yl)ethoxy]-1,2-oxazol-5-yl}-3-methylbutanoyl]-N-[(1S)-1-(4-cyanophenyl)ethyl]-4-hydroxypyrrolidine-2-carboxamide]",2.5 to 10,> 75
"Cc1ncsc1-c1ccc([C@H](C)NC(=O)[C@@H]2C[C@@H](O)CN2C(=O)[C@H](c2cc(O[C@H]3C[C@H](CN4CCC(O[C@H]5C[C@H](N6CCOC7(CCN(c8cc(-c9ccccc9O)nnc8N)CC7)C6)C5)CC4)C3)no2)C(C)C)cc1 [Compound 67, (2S,4R)-4-hydroxy-N-[(1S)-1-[4-(4-methyl-1,3-thiazol-5-yl)phenyl]ethyl]-1-[(2S)-3-methyl-2-{3-[(1r,3r)-3-({4-[(1r,3r)-3-{9-[3-amino-6-(2-hydroxyphenyl)pyridazin-4-yl]-1-oxa-4,9-diazaspiro[5.5]undecan-4-yl}cyclobutoxy]piperidin-1-yl}methyl)cyclobutoxy]-1,2-oxazol-5-yl}butanoyl]pyrrolidine-2-carboxamide]",10 to 30,> 75
"Cc1ncsc1-c1ccc([C@H](C)NC(=O)[C@@H]2C[C@@H](O)CN2C(=O)[C@@H](c2cc(O[C@H]3C[C@H](CN4CCC(O[C@H]5C[C@H](N6CCOC7(CCN(c8cc(-c9ccccc9O)nnc8N)CC7)C6)C5)CC4)C3)no2)C(C)C)cc1 [Compound 68, (2S,4R)-4-hydroxy-N-[(1S)-1-[4-(4-methyl-1,3-thiazol-5-yl)phenyl]ethyl]-1-[(2R)-3-methyl-2-{3-[(1r,3r)-3-({4-[(1r,3r)-3-{9-[3-amino-6-(2-hydroxyphenyl)pyridazin-4-yl]-1-oxa-4,9-diazaspiro[5.5]undecan-4-yl}cyclobutoxy]piperidin-1-yl}methyl)cyclobutoxy]-1,2-oxazol-5-yl}butanoyl]pyrrolidine-2-carboxamide]",< 2.5,> 75
"Cc1ncsc1-c1ccc([C@H](C)NC(=O)[C@@H]2C[C@@H](O)CN2C(=O)[C@@H](c2cc(N3CCC(CN4CCC(O[C@H]5C[C@H](N6CCC(C(C)n7cc(/C=C/c8cc(-c9ccccc9O)nnc8N)cn7)CC6)C5)CC4)CC3)no2)C(C)C)cc1 (stereo partly drawn) [Compound 69, (2S,4R)-4-hydroxy-N-[(1S)-1-[4-(4-methyl-1,3-thiazol-5-yl)phenyl]ethyl]-1-[(2R)-3-methyl-2-{3-[4-({4-[(1r,3r)-3-[4-(1-{4-[(1E)-2-[3-amino-6-(2-hydroxyphenyl)pyridazin-4-yl]ethenyl]-1H-pyrazol-1-yl}ethyl)piperidin-1-yl]cyclobutoxy]piperidin-1-yl}methyl)piperidin-1-yl]-1,2-oxazol-5-yl}butanoyl]pyrrolidine-2-carboxamide]",< 2.5,> 75
"Cc1ncsc1-c1ccc([C@H](C)NC(=O)[C@@H]2C[C@@H](O)CN2C(=O)[C@@H](c2cc(N3CCC(CN4CCC5(CC4)CC(N4CCC[C@@H](CN6C7CCC6CN(c6cc(-c8ccccc8O)nnc6N)C7)C4)C5)CC3)no2)C(C)C)cc1 [Compound 70, (2S,4R)-1-[(2R)-2-{3-[4-({2-[(3R)-3-({3-[3-amino-6-(2-hydroxyphenyl)pyridazin-4-yl]-3,8-diazabicyclo[3.2.1]octan-8-yl}methyl)piperidin-1-yl]-7-azaspiro[3.5]nonan-7-yl}methyl)piperidin-1-yl]-1,2-oxazol-5-yl}-3-methylbutanoyl]-4-hydroxy-N-[(1S)-1-[4-(4-methyl-1,3-thiazol-5-yl)phenyl]ethyl]pyrrolidine-2-carboxamide]",< 2.5,> 75
"Cc1ncsc1-c1ccc([C@H](C)NC(=O)[C@@H]2C[C@@H](O)CN2C(=O)[C@@H](c2cc(N3CCC(CN4CCC5(CC4)CC(N4CCC[C@@](O)(CN6C7CCC6CN(c6cc(-c8ccccc8O)nnc6N)C7)C4)C5)CC3)no2)C(C)C)cc1 [Compound 71, (2S,4R)-1-[(2R)-2-{3-[4-({2-[(3S)-3-({3-[3-amino-6-(2-hydroxyphenyl)pyridazin-4-yl]-3,8-diazabicyclo[3.2.1]octan-8-yl}methyl)-3-hydroxypiperidin-1-yl]-7-azaspiro[3.5]nonan-7-yl}methyl)piperidin-1-yl]-1,2-oxazol-5-yl}-3-methylbutanoyl]-4-hydroxy-N-[(1S)-1-[4-(4-methyl-1,3-thiazol-5-yl)phenyl]ethyl]pyrrolidine-2-carboxamide]",< 2.5,> 75
"CC(C)[C@@H](C(=O)N1C[C@H](O)C[C@H]1C(=O)N[C@@H](C)c1ccc(-c2scnc2C#CCOCCOCCOCCOc2cc(N3C4CCC3CN(c3cc(-c5ccccc5O)nnc3N)C4)ccn2)cc1)N1Cc2ccccc2C1=O [Compound 72, (2S,4R)-N-[(1S)-1-[4-(4-{3-[2-(2-{2-[(4-{3-[3-amino-6-(2-hydroxyphenyl)pyridazin-4-yl]-3,8-diazabicyclo[3.2.1]octan-8-yl}pyridin-2-yl)oxy]ethoxy}ethoxy)ethoxy]prop-1-yn-1-yl}-1,3-thiazol-5-yl)phenyl]ethyl]-4-hydroxy-1-[(2S)-3-methyl-2-(1-oxo-2,3-dihydro-1H-isoindol-2-yl)butanoyl]pyrrolidine-2-carboxamide]",≥ 30,
"Cc1ncsc1-c1ccc([C@H](C)NC(=O)[C@@H]2C[C@@H](O)CN2C(=O)[C@@H](c2cc(N3CCC(CN4CCC5(CC4)CC(N4C[C@H](CN6C7CCC6CN(c6cc(-c8ccccc8O)nnc6N)C7)O[C@H](C)C4)C5)CC3)no2)C(C)C)cc1 [Compound 73, (2S,4R)-1-[(2R)-2-{3-[4-({2-[(2R,6R)-2-({3-[3-amino-6-(2-hydroxyphenyl)pyridazin-4-yl]-3,8-diazabicyclo[3.2.1]octan-8-yl}methyl)-6-methylmorpholin-4-yl]-7-azaspiro[3.5]nonan-7-yl}methyl)piperidin-1-yl]-1,2-oxazol-5-yl}-3-methylbutanoyl]-4-hydroxy-N-[(1S)-1-[4-(4-methyl-1,3-thiazol-5-yl)phenyl]ethyl]pyrrolidine-2-carboxamide]",< 2.5,> 75
"Cc1ncsc1-c1ccc([C@H](C)NC(=O)[C@@H]2C[C@@H](O)CN2C(=O)[C@@H](c2cc(N3CCC(CN4CCC(O[C@H]5C[C@H](N6CCC([C@@H](C)c7cnn(-c8cc(-c9ccccc9O)nnc8N)c7)CC6)C5)CC4)CC3)no2)C(C)C)cc1 [Compound 74, (2S,4R)-4-hydroxy-N-[(1S)-1-[4-(4-methyl-1,3-thiazol-5-yl)phenyl]ethyl]-1-[(2R)-3-methyl-2-{3-[4-({4-[(1r,3r)-3-{4-[(1R)-1-{1-[3-amino-6-(2-hydroxyphenyl)pyridazin-4-yl]-1H-pyrazol-4-yl}ethyl]piperidin-- yl}cyclobutoxy]piperidin-1-yl}methyl)piperidin-1-yl]-1,2-oxazol-5-yl}butanoyl]pyrrolidine-2-carboxamide]",< 2.5,> 75
"Cc1ncsc1-c1ccc([C@H](C)NC(=O)[C@@H]2C[C@@H](O)CN2C(=O)[C@@H](c2cc(N3CCC(CN4CCC(O[C@H]5C[C@H](N6CCC([C@H](C)c7cnn(-c8cc(-c9ccccc9O)nnc8N)c7)CC6)C5)CC4)CC3)no2)C(C)C)cc1 [Compound 75, (2S,4R)-4-hydroxy-N-[(1S)-1-[4-(4-methyl-1,3-thiazol-5-yl)phenyl]ethyl]-1-[(2R)-3-methyl-2-{3-[4-({4-[(1r,3r)-3-{4-[(1S)-1-{1-[3-amino-6-(2-hydroxyphenyl)pyridazin-4-yl]-1H-pyrazol-4-yl}ethyl]piperidin-1-yl}cyclobutoxy]piperidin-1-yl}methyl)piperidin-1-yl]-1,2-oxazol-5-yl}butanoyl]pyrrolidine-2-carboxamide]",< 2.5,> 75
"Cc1ncsc1-c1ccc([C@H](C)NC(=O)[C@@H]2C[C@@H](O)CN2C(=O)[C@@H](c2cc(N3CCC(CN4CCC(O[C@H]5C[C@H](C(=O)N6CCC(N7C8CCC7CN(c7cc(-c9ccccc9O)nnc7N)C8)CC6)C5)CC4)CC3)no2)C(C)C)cc1 [Compound 76, (2S,4R)-4-hydroxy-N-[(1S)-1-[4-(4-methyl-1,3-thiazol-5-yl)phenyl]ethyl]-1-[(2R)-3-methyl-2-{3-[4-({4-[(1r,3r)-3-(4-{3-[3-amino-6-(2-hydroxyphenyl)pyridazin-4-yl]-3,8-diazabicyclo[3.2.1]octan-8-yl}piperidine-1-carbonyl)cyclobutoxy]piperidin-1-yl}methyl)piperidin-1-yl]-1,2-oxazol-5-yl}butanoyl]pyrrolidine-2-carboxamide]",2.5 to 10,> 75
"Cc1ncsc1-c1ccc([C@H](C)NC(=O)[C@@H]2C[C@@H](O)CN2C(=O)[C@@H](c2cc(N3CCC(CN4CCC(O[C@H]5C[C@H](N6CCC(O[C@H]7CCN(c8cc(-c9ccccc9O)nnc8N)C7)CC6)C5)CC4)CC3)no2)C(C)C)cc1 [Compound 77, (2S,4R)-4-hydroxy-N-[(1S)-1-[4-(4-methyl-1,3-thiazol-5-yl)phenyl]ethyl]-1-[(2R)-3-methyl-2-{3-[4-({4-[(1r,3r)-3-(4-{[(3S)-1-[3-amino-6-(2-hydroxyphenyl)pyridazin-4-yl]pyrrolidin-3-yl]oxy}piperidin-1-yl)cyclobutoxy]piperidin-1-yl}methyl)piperidin-1-yl]-1,2-oxazol-5-yl}butanoyl]pyrrolidine-2-carboxamide]",< 2.5,> 75
